Reference: patent US20230144399A1, “QUINOLINE COMPOUNDS FOR THE TREATMENT AND PROPHYLAXIS OF HEPATITIS B VIRUS DISEASE” (Hoffmann-La Roche Inc., priority 2017, published 2023)

Experiments:
[1] = tested on: HBV cccDNA (HBeAg level) in HepDES19 cells; test: Engineered HepDES19 primary screen assay (HBeAg as surrogate marker for cccDNA); assay type: cell-based; conditions: Hepatitis B virus, HepDES19, 120 h, read-out: IC50 (HBeAg level, HepDES19 primary screen assay)
Text: The assay was employed to screen for novel cccDNA inhibitors. HepDES19 is a cccDNA-producing cell line. In this cell line, HBeAg in the cell culture supernatant as surrogate marker, as HBeAg production depends on cccDNA level and activity. HepDES19 is an engineered cell line which contains a 1.1 unit length HBV genome, and pgRNA transcription from the transgene is controlled by Tetracycline (Tet). In the absence of Tet, pgRNA transcription will be induced, but HBV e antigen (HBeAg) could not be produced from this pgRNA due to very short leader sequence before the HBeAg start codon and the start codon is disrupted. Only after cccDNA is formed, the missing leader sequence and start codon mutation would be restored from the 3′-terminal redundancy of pgRNA, and then HBeAg could be synthesized. Therefore, HBeAg could be used as a surrogate marker for cccDNA (Zhou, T. et al., Antiviral Res.(2006), 72(2), 116-124; Guo, H. et al., J. Virol. (2007), 81(22), 12472-12484).
HepDES19 cells were seeded at 2×10^6 cells per T150 flask and cultured with the culture medium (Dulbecco's Modified Eagle Medium: Nutrient Mixture F-12 [DMEM-F12, Gibco Cat. 11320-82], 10% Fetal Bovine Serum [FBS, Clontech Cat. 631101], 0.1 mM Non-Essential Amino Acids Solution [NEAA, Gibco Cat. 11140-050], 50 μg/mL Penicillin-Streptomycin [PS, Invitrogen Cat. 15140-163], 500 μg/mL Geneticin [G418, Invitrogen Cat. 10131-027]) containing 3 μg/mL Tet (Sigma, Cat. 87128) for 5 days. Cells were then seeded at 4×10^6 cells per T150 in the same culture medium as described above in the absence of Tet for 8 days. Cells were then harvested and frozen at density of 2×10^6 cells per mL. For compound testing, the frozen cells were thawed and seeded into 96-well plates at a density of 6×10^4 cells per well. At 24 hrs after seeding, half log serial dilutions of compounds made with Dimethyl sulfoxide (DMSO, Sigma, Cat. D2650) were further diluted with the same culture medium as described above before they were added to the cells to reach desired final compound concentrations and 1% DMSO concentration. Plates were then incubated at 37° C. for another 5 days before measurement of HBeAg level and cell viability. Intracellular HBeAg level were measured with enzyme-linked immunosorbent assay (ELISA) kit (Shanghai Kehua Diagnostic Medical Products Co., Ltd). Cell viability was assessed using Cell Counting Kit-8 (Donjindo, Cat. CK04-20). IC50 values were derived from the dose-response curve using 4 parameter logistic curve fit method.
The compounds of the present invention were tested for their capacity to inhibit extracellular HBeAg level as described herein.

[2] = tested on: HBV (extracellular HBsAg) in HBV-infected PHH; test: Cryopreserved primary human hepatocytes (PHH) HBV infection assay; assay type: cell-based; conditions: Hepatitis B virus, Hepatocyte, 216 h, 9 days post-compound treatment, extracellular HBsAg by CLIA
Procedure: This assay is used to confirm the anti-HBV effect of the compounds in HBV PHH infection assay. Cryopreserved PHH (BioreclamationIVT, Lot YJM) was thawed at 37° C. and gently transferred into pre-warmed InVitroGRO HT medium (BioreclamationIVT, Cat. S03317). The mixture was centrifuged at 70 relative centrifugal force (RCF) for 3 minutes at RT, and the supernatant was discarded. Pre-warmed InVitroGRO CP medium (BioreclamationIVT, Cat #S03316) was added to the cell pellet to gently re-suspend cells. The cells were seeded at the density of 5.8×10^4 cells per well to collagen I coated 96-well plate (Gibco, Cat. A1142803) with the InVitroGRO CP medium. All plates were incubated at 37° C. with 5% CO2 and 85% humidity.
At 20 hours after plating, the medium was changed to PHH culture medium (Dulbecco's Modified Eagle Medium (DMEM)/F12 (1:1) (Gibco, Cat. 11320-033), 10% fetal bovine serum (Gibco Cat. 10099141), 100 U/mL penicillin, 100 μg/mL streptomycin (Gibco, Cat. 151401-122), 5 ng/mL human epidermal growth factor (Invitrogen Cat. PHG0311L), 20 ng/mL dexamethasone (Sigma, Cat. D4902) and 250 ng/mL human recombinant insulin (Gibco, Cat. 12585-014)). And the cells were incubated at 37° C. with 5% CO2 and 85% humidity for 4 hours. The medium was then changed to pre-warmed PHH culture medium containing 4% polyethylene glycol (PEG) MW8000 (Sigma, Cat. P1458-50ML) and 1% DMSO (Sigma, Cat. D2650). 5.8×10^6 genomic equivalents of HBV were added into the medium.
At 24 hours post-infection, the cells were gently washed with PBS and refreshed with PHH culture medium supplemented with 1% DMSO, and 0.25 mg/mL Matrix gel (Corning, Cat. 356237) at 200 μL per well. All plates were immediately placed in at 37° C. CO2 incubator. 24 hours later, serial dilutions of compounds made with DMSO were further diluted with the same culture medium (PHH culture medium supplemented with 1% DMSO and 0.25 mg/mL Matrix gel as described above) before they were added to the cells to reach desired final compound concentrations and 1% DMSO concentration. The medium containing the compounds were refreshed every three days.
At 9 days post-compound treatment, extracellular HBsAg level were measured with Chemiluminescence Immuno Assay (CLIA) kit (Autobio, HBsAg Quantitative CLIA). Extracellular HBV DNA was extracted by MagNA Pure 96 system (Roche) and then determined by quantitative PCR with the following primers and probe: […]
HBsAg IC50 and HBV DNA IC50 values were derived from the dose-response curve using 4 parameter logistic curve fit method.

SMILES | IC50 [1] [nM] | IC50 [2] [nM]
COc1cc2cccc(Cl)c2nc1-c1ccc(OCCO[C@H]2C[C@@H](C(=O)O)C2)cc1 [Example 15, Cis-3-[2-[4-(8-chloro-3-methoxy-2-quinolyl)phenoxy]ethoxy]cyclobutanecarboxylic acid] | 2530 | 
O=C(O)C1CC(OCCOc2ccc(-c3cc(C(F)(F)F)c4cccc(Cl)c4n3)cc2)C1 (stereo not shown) [Example 12, 3-[2-[4-[8-chloro-4-(trifluoromethyl)-2-quinolyl]phenoxy]ethoxy]cyclobutanecarboxylic acid] | 515 | 3310
COc1ccc(-c2ccc3cccc(Cl)c3n2)cc1C(F)(F)F [Example 3, 8-chloro-2-[4-methoxy-3-(trifluoromethyl)phenyl]quinoline] | 141 | 11300
O=C(O)COCCOc1ccc(-c2cc(C(F)(F)F)c3cccc(Cl)c3n2)cc1 [Example 13, 2-[2-[4-[8-chloro-4-(trifluoromethyl)-2-quinolyl]phenoxy]ethoxy]acetic acid] | 1670 | 5500
O=C(O)[C@H]1C[C@@H](OCCOc2ccc(-c3ccc4cccc(Cl)c4n3)cc2C(F)(F)F)C1 [Example 5, Cis-3-[2-[4-(8-chloro-2-quinolyl)-2-(trifluoromethyl)phenoxy]ethoxy]cyclobutanecarboxylic acid] | 3910 | 2950
OCCOc1ccc(-c2ccc3cccc(Cl)c3n2)cc1C(F)(F)F [Example 4, 2-[4-(8-chloro-2-quinolyl)-2-(trifluoromethyl)phenoxy]ethanol] | 2120 | 6770
O=C(O)C1CC(OCCOc2cc3c(Cl)ccc(Cl)c3nc2-c2ccc(O)cc2)C1 (stereo not shown) [Example 16, 3-[2-[[5,8-dichloro-2-(4-hydroxyphenyl)-3-quinolyl]oxy]ethoxy]cyclobutanecarboxlic acid] | 3620 | 
O=C(O)COCCOc1ccc(-c2ccc3cccc(Cl)c3n2)cc1 [Example 2, 2-[2-[4-(8-chloro-2-quinolyl)phenoxy]ethoxy]acetic acid] | 233 | 970
O=C(O)[C@H]1C[C@@H](OCCOc2ccc(-c3ccc4cccc(Cl)c4n3)cc2)C1 [Example 1, Cis-3-[2-[4-(8-chloro-2-quinolyl)phenoxy]ethoxy]cyclobutanecarboxylic acid] | 8 | 15
OCCOc1ccc(-c2ccc3ccc(C(F)(F)F)cc3n2)cc1 [Example 8, 2-[4-[7-(trifluoromethyl)-2-quinolyl]phenoxy]ethanol] | 18500 | 
N#Cc1cc(OCCO[C@H]2C[C@@H](C(=O)O)C2)ccc1-c1ccc2cccc(Cl)c2n1 [Example 7, Cis-3-[2-[4-(8-chloro-2-quinolyl)-3-cyano-phenoxy]ethoxy]cyclobutanecarboxylic acid] | 18400 | 
O=C(O)c1cc(-c2cccc(Br)c2)nc2cc(C(F)(F)F)ccc12 [Example 10, 2-(3-bromophenyl)-7-(trifluoromethyl)quinoline-4-carboxylic acid] | 19500 | 
COC(=O)[C@H]1C[C@@H](OCCOc2ccc(-c3ccc4ccc(C(F)(F)F)cc4n3)cc2)C1 [Example 9, Cis-methyl 3-[2-[4-[7-(trifluoromethyl)-2-quinolyl]phenoxy]ethoxy]cyclobutanecarboxylate] | 17800 | 
O=C(O)COCCOc1ccc(-c2ccc3cccc(Cl)c3n2)cc1C(F)(F)F [Example 6, 2-[2-[4-(8-chloro-2-quinolyl)-2-(trifluoromethyl)phenoxy]ethoxy]acetic acid] | 537 | 8340
COc1cc(-c2ccc(OCc3cccc(C(=O)O)c3)cc2)nc2c(Cl)cccc12 [Example 14, 3-[[4-(8-chloro-4-methoxy-2-quinolyl)phenoxy]methyl]benzoic acid] | 1860 | 
Cc1cc(-c2cccc(Br)c2)nc2cc(C(F)(F)F)ccc12 [Example 11, 2-(3-bromophenyl)-4-methyl-7-(trifluoromethyl)quinoline] | 2070 | 1660
